Reference: PubChem BioAssay (NCI)
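96-well plates; 48 h exposure; 5 concentrations. Endpoints by linear interpolation between flanking doses. Not reached: highest tested concentration assigned. GI50: concentration for 50% inhibition of growth. Definition used: TGI = concentration required for complete inhibition of growth.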

Tests used:
Test in all cases: growth of human tumour cells (NCI), 48 h
[1] = system: 786-0 renal
[2] = system: A498 renal
[3] = system: A549 NSCLC
[4] = system: ACHN renal
[5] = system: BT-549 breast
[6] = system: CAKI-1 renal
[7] = system: CCRF-CEM leukemia
[8] = system: COLO 205 colon
[9] = system: DU-145 prostate
[10] = system: EKVX NSCLC
[11] = system: HCC-2998 colon
[12] = system: HCT-116 colon
[13] = system: HCT-15 colon
[14] = system: HL-60(TB) leukemia
[15] = system: HOP-62 NSCLC
[16] = system: HOP-92 NSCLC
[17] = system: HS 578T breast
[18] = system: HT29 colon
[19] = system: IGROV1 ovarian
[20] = system: K-562 leukemia
[21] = system: KM12 colon
[22] = system: LOX IMVI melanoma
[23] = system: M14 melanoma
[24] = system: MALME-3M melanoma
[25] = system: MCF7 breast
[26] = system: MDA-MB-435
[27] = system: MDA-MB-468 breast
[28] = system: MOLT-4 leukemia
[29] = system: NCI-H226 lung
[30] = system: NCI-H23 lung
[31] = system: NCI-H460 lung
[32] = system: NCI-H522 lung
[33] = system: NCI/ADR-RES ovarian
[34] = system: OVCAR-3 ovarian
[35] = system: OVCAR-4 ovarian
[36] = system: OVCAR-5 ovarian
[37] = system: OVCAR-8 ovarian
[38] = system: PC-3 prostate
[39] = system: RPMI-8226 leukemia
[40] = system: RXF 393 renal
[41] = system: SF-268 CNS
[42] = system: SF-295 CNS
[43] = system: SF-539 CNS
[44] = system: SK-MEL-28 melanoma
[45] = system: SK-MEL-5 melanoma
[46] = system: SK-OV-3 ovarian
[47] = system: SN12C renal
[48] = system: SNB-19 CNS
[49] = system: SR leukemia
[50] = system: SW-620 colon
[51] = system: T-47D breast
[52] = system: TK-10 renal
[53] = system: U251 CNS
[54] = system: UACC-257 melanoma
[55] = system: UACC-62 melanoma

Structure (SMILES): N#Cc1c(-c2ccc(F)cc2)nc(SCc2ccccc2)nc1N1CCNCC1
- GI50 [1]: 11 µM
- TGI [1]: 25.4 µM
- GI50 [2]: 13.1 µM
- TGI [2]: 27.3 µM
- GI50 [3]: 8.1 µM
- TGI [3]: 21.5 µM
- GI50 [4]: 14 µM
- TGI [4]: 27.5 µM
- GI50 [5]: 13 µM
- TGI [5]: 26.4 µM
- GI50 [6]: 16 µM
- TGI [6]: 29.7 µM
- GI50 [7]: 13.9 µM
- TGI [7]: 31 µM
- GI50 [8]: 1.66 µM
- TGI [8]: 3.17 µM
- GI50 [9]: 15 µM
- TGI [9]: 29 µM
- GI50 [10]: 12 µM
- TGI [10]: 24.8 µM
- GI50 [11]: 1.76 µM
- TGI [11]: 3.22 µM
- GI50 [12]: 3.51 µM
- TGI [12]: 11.6 µM
- GI50 [13]: 5.05 µM
- TGI [13]: 17.5 µM
- GI50 [14]: 4.5 µM
- TGI [14]: 17.3 µM
- GI50 [15]: 13.2 µM
- TGI [15]: 28.1 µM
- GI50 [16]: 4.2 µM
- TGI [16]: 18.1 µM
- GI50 [17]: 14.1 µM
- TGI [17]: 32 µM
- GI50 [18]: 3.3 µM
- TGI [18]: 10.5 µM
- GI50 [19]: 14.7 µM
- TGI [19]: 28.9 µM
- GI50 [20]: 2.21 µM
- TGI [20]: 5.42 µM
- GI50 [21]: 17.1 µM
- TGI [21]: 32.8 µM
- GI50 [22]: 1.71 µM
- TGI [22]: 3.33 µM
- GI50 [23]: 12 µM
- TGI [23]: 24.8 µM
- GI50 [24]: 14.1 µM
- TGI [24]: 28.2 µM
- GI50 [25]: 3.94 µM
- TGI [25]: 15.3 µM
- GI50 [26]: 16.9 µM
- TGI [26]: 31.5 µM
- GI50 [27]: 6.71 µM
- TGI [27]: 21.3 µM
- GI50 [28]: 7.07 µM
- TGI [28]: 21.2 µM
- GI50 [29]: 13.8 µM
- TGI [29]: 33.4 µM
- GI50 [30]: 15.1 µM
- TGI [30]: 29.3 µM
- GI50 [31]: 9.2 µM
- TGI [31]: 22.9 µM
- GI50 [32]: 11.3 µM
- TGI [32]: 25.1 µM
- GI50 [33]: 11.7 µM
- TGI [33]: 27.4 µM
- GI50 [34]: 14.3 µM
- TGI [34]: 29.1 µM
- GI50 [35]: 15.7 µM
- TGI [35]: 34.2 µM
- GI50 [36]: 14.1 µM
- TGI [36]: 27.6 µM
- GI50 [37]: 6.21 µM
- TGI [37]: 21.8 µM
- GI50 [38]: 11.8 µM
- TGI [38]: 25.8 µM
- GI50 [39]: 3.99 µM
- TGI [39]: 17.5 µM
- GI50 [40]: 3.14 µM
- TGI [40]: 14.8 µM
- GI50 [41]: 12.9 µM
- TGI [41]: 29.1 µM
- GI50 [42]: 15.8 µM
- TGI [42]: 30.1 µM
- GI50 [43]: 15.7 µM
- TGI [43]: 29.4 µM
- GI50 [44]: 16.3 µM
- TGI [44]: 30.3 µM
- GI50 [45]: 15.7 µM
- TGI [45]: 29.2 µM
- GI50 [46]: 16 µM
- TGI [46]: 29.5 µM
- GI50 [47]: 13.8 µM
- TGI [47]: 27.2 µM
- GI50 [48]: 14.2 µM
- TGI [48]: 29.3 µM
- GI50 [49]: 1.92 µM
- TGI [49]: 4.61 µM
- GI50 [50]: 3.38 µM
- TGI [50]: 13.1 µM
- GI50 [51]: 10.1 µM
- TGI [51]: 24.8 µM
- GI50 [52]: 14.5 µM
- TGI [52]: 28.4 µM
- GI50 [53]: 4.36 µM
- TGI [53]: 16.1 µM
- GI50 [54]: 13.1 µM
- TGI [54]: 26.2 µM
- GI50 [55]: 14.4 µM
- TGI [55]: 28.2 µM
